# Assay results taken from PubChem BioAssay (NCI).
#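 The compound was tested at five concentrations on cells cultured in 96-well plates, with a 48-hour exposure period. TGI is the concentration that stops growth completely.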
# System: NCI-H23 lung
# Experiment: inhibition of tumour cell growth, NCI panel, 48 h
row,SMILES,TGI
1,Cc1c(/C=N/NC(=S)N2CCCCC2)c(=O)n(-c2ccccc2)n1C,> 100 µM
2,CC(C)(C)OC(=O)CCCCCNC(=O)CCCCCNC(=O)CCC(CN(CC(=O)OCc1ccccc1)CC(=O)OCc1ccccc1)N(CC(=O)OCc1ccccc1)CC(=O)OCc1ccccc1 (configuration not stated),> 100 µM
3,O=[N+]([O-])/C(Cl)=C(/C(Cl)=C(Cl)Cl)N1CCOCC1,5.68 µM
4,CN=c1sc2nc(C#N)c(C#N)nc2n1C,37.9 µM
5,CC(C)OP(=O)(OC(C)C)C(C)(C)O,> 100 µM
6,COC(=O)C(=O)Nc1cc2c3c(c1)Oc1cccc4c1C3(C)c1c(cccc1O2)O4,> 100 µM

# System: MDA-MB-435
# Experiment: inhibition of tumour cell growth, NCI panel, 48 h
row,SMILES,TGI
1,O=C(Nc1ccccc1)OCCN=C1c2ccccc2CCc2ccccc21,43.6 µM
2,COc1cc2cc(C(=O)N3CC(CCl)c4ccc([N+](C)(C)Cc5ccccc5[N+](=O)[O-])cc43)[nH]c2c(OC)c1OC (configuration not stated),5.17 µM
3,CC(C)[C@H]1NC(=O)[C@H]2N=C(S[C@H]2C)[C@@H]2CCCN2C(=O)[C@H](Cc2ccccc2)NC(=O)[C@@H]2CSC(=N2)[C@@H](Cc2ccccc2)NC(=O)[C@@H]2CSC1=N2,> 50 µM
4,O=C1Oc2ccccc2C(=O)/C1=C/N1C(=O)CNC1=S,> 100 µM
5,CC1=NN(c2nc(N)nc(/C(C#N)=C\c3ccc(-c4ccc([N+](=O)[O-])cc4)o3)n2)C(C)(C)C1,> 100 µM
6,COc1ccc2nc3ccc(OC)cc3c(SCCCl)c2c1,> 49.5 µM
7,CC(Oc1ccccc1Cl)C(=O)NN1C(=O)CC(=O)N(c2ccc(Cl)cc2)C1=S (configuration not stated),> 100 µM
8,CC(C)[Si]1(C(C)C)OCC2OC(n3ccc(=O)[nH]c3=O)C([Se]c3ccccc3)C2O[Si](C(C)C)(C(C)C)O1 (configuration not stated),17.3 µM
9,O=C1NCN(c2ccccc2)C12CCN(CC1COc3ccccc3O1)CC2 (configuration not stated),> 100 µM
10,O=C1OC([C@H](O)c2cccnc2)c2ccccc21 (some centres not stated),> 10 µM
11,CC(C)(C)OC(=O)N1CCCC1C(=O)NC(c1ccccc1)c1ccccc1 (configuration not stated),> 100 µM
12,O=C1Cc2cn[nH]c2-c2ccccc2N1,59.7 µM
13,O=CNc1ccccc1OCCOc1ccccc1NC=O,> 100 µM
14,C=CCN1CCC(c2cc(C(=O)OCC)[nH]c2-c2cc(C)no2)C1=O (configuration not stated),> 100 µM
15,O=c1[nH][nH]c(=O)c2c1ccc1oc3ccccc3c12,> 100 µM
16,O=C1CSC(c2ccccc2O)N1c1ccc(-n2c(-c3ccccc3)nc3ccccc3c2=O)cc1 (configuration not stated),81.5 µM
17,Cc1ccc(C(=O)Oc2ccccc2)cc1N=NN(C)C,> 100 µM
18,O=C1NC2(CCNCC2)Oc2ccccc21,> 100 µM
19,Cc1c(/C=N/NC(=S)N2CCCCC2)c(=O)n(-c2ccccc2)n1C,> 100 µM
20,CC(C)(C)OC(=O)CCCCCNC(=O)CCCCCNC(=O)CCC(CN(CC(=O)OCc1ccccc1)CC(=O)OCc1ccccc1)N(CC(=O)OCc1ccccc1)CC(=O)OCc1ccccc1 (configuration not stated),> 100 µM
21,O=[N+]([O-])/C(Cl)=C(/C(Cl)=C(Cl)Cl)N1CCOCC1,7.64 µM
22,CN=c1sc2nc(C#N)c(C#N)nc2n1C,52.1 µM
23,CC(C)OP(=O)(OC(C)C)C(C)(C)O,> 100 µM
24,COC(=O)C(=O)Nc1cc2c3c(c1)Oc1cccc4c1C3(C)c1c(cccc1O2)O4,> 100 µM

# System: CAKI-1 renal
# Experiment: inhibition of tumour cell growth, NCI panel, 48 h
row,SMILES,TGI
1,O=C(Nc1ccccc1)OCCN=C1c2ccccc2CCc2ccccc21,88 µM
2,COc1cc2cc(C(=O)N3CC(CCl)c4ccc([N+](C)(C)Cc5ccccc5[N+](=O)[O-])cc43)[nH]c2c(OC)c1OC (configuration not stated),14.5 µM
3,CC(C)[C@H]1NC(=O)[C@H]2N=C(S[C@H]2C)[C@@H]2CCCN2C(=O)[C@H](Cc2ccccc2)NC(=O)[C@@H]2CSC(=N2)[C@@H](Cc2ccccc2)NC(=O)[C@@H]2CSC1=N2,> 50 µM
4,O=C1Oc2ccccc2C(=O)/C1=C/N1C(=O)CNC1=S,> 100 µM
5,CC1=NN(c2nc(N)nc(/C(C#N)=C\c3ccc(-c4ccc([N+](=O)[O-])cc4)o3)n2)C(C)(C)C1,> 100 µM
6,COc1ccc2nc3ccc(OC)cc3c(SCCCl)c2c1,66.8 µM
7,CC(Oc1ccccc1Cl)C(=O)NN1C(=O)CC(=O)N(c2ccc(Cl)cc2)C1=S (configuration not stated),> 100 µM
8,CC(C)[Si]1(C(C)C)OCC2OC(n3ccc(=O)[nH]c3=O)C([Se]c3ccccc3)C2O[Si](C(C)C)(C(C)C)O1 (configuration not stated),24.3 µM
9,O=C1NCN(c2ccccc2)C12CCN(CC1COc3ccccc3O1)CC2 (configuration not stated),> 100 µM
10,O=C1OC([C@H](O)c2cccnc2)c2ccccc21 (some centres not stated),> 10 µM
11,CC(C)(C)OC(=O)N1CCCC1C(=O)NC(c1ccccc1)c1ccccc1 (configuration not stated),> 100 µM
12,O=C1Cc2cn[nH]c2-c2ccccc2N1,> 35.2 µM
13,O=CNc1ccccc1OCCOc1ccccc1NC=O,> 100 µM
14,C=CCN1CCC(c2cc(C(=O)OCC)[nH]c2-c2cc(C)no2)C1=O (configuration not stated),> 100 µM
15,O=c1[nH][nH]c(=O)c2c1ccc1oc3ccccc3c12,> 100 µM
16,O=C1CSC(c2ccccc2O)N1c1ccc(-n2c(-c3ccccc3)nc3ccccc3c2=O)cc1 (configuration not stated),> 100 µM
17,Cc1ccc(C(=O)Oc2ccccc2)cc1N=NN(C)C,> 100 µM
18,O=C1NC2(CCNCC2)Oc2ccccc21,> 100 µM
19,Cc1c(/C=N/NC(=S)N2CCCCC2)c(=O)n(-c2ccccc2)n1C,> 100 µM
20,CC(C)(C)OC(=O)CCCCCNC(=O)CCCCCNC(=O)CCC(CN(CC(=O)OCc1ccccc1)CC(=O)OCc1ccccc1)N(CC(=O)OCc1ccccc1)CC(=O)OCc1ccccc1 (configuration not stated),> 100 µM
21,O=[N+]([O-])/C(Cl)=C(/C(Cl)=C(Cl)Cl)N1CCOCC1,12.7 µM
22,CN=c1sc2nc(C#N)c(C#N)nc2n1C,60.3 µM
23,CC(C)OP(=O)(OC(C)C)C(C)(C)O,> 100 µM
24,COC(=O)C(=O)Nc1cc2c3c(c1)Oc1cccc4c1C3(C)c1c(cccc1O2)O4,> 100 µM

# System: SNB-19 CNS
# Experiment: inhibition of tumour cell growth, NCI panel, 48 h
row,SMILES,TGI
1,O=C(Nc1ccccc1)OCCN=C1c2ccccc2CCc2ccccc21,43.7 µM
2,COc1cc2cc(C(=O)N3CC(CCl)c4ccc([N+](C)(C)Cc5ccccc5[N+](=O)[O-])cc43)[nH]c2c(OC)c1OC (configuration not stated),9.76 µM
3,CC(C)[C@H]1NC(=O)[C@H]2N=C(S[C@H]2C)[C@@H]2CCCN2C(=O)[C@H](Cc2ccccc2)NC(=O)[C@@H]2CSC(=N2)[C@@H](Cc2ccccc2)NC(=O)[C@@H]2CSC1=N2,> 50 µM
